Assay results as given in EPA's ToxValDB 9.5 (doi:10.2903/j.efsa.2009.336r).

How the values were obtained:
[1] = system: Anas platyrhynchos
[2] = system: Apis mellifera; conditions: acute; duration: 48 hours; oral; unspecified; mortality
[3] = system: Avena sativa; conditions: not reported; no effects
[4] = system: Bibionidae; conditions: chronic/long-term; duration: 28 days; other
[5] = system: Canidae; conditions: chronic; duration: 52 weeks; oral; Dog Other; organ weight
[6] = system: Colinus virginianus; conditions: acute, oral, mortality
[7] = system: Daphnia magna; conditions: chronic/long-term; duration: 21 days; reproduction
[8] = system: Lepomis macrochirus; conditions: acute; duration: 96 hours; mortality
[9] = system: Oncorhynchus mykiss; conditions: chronic/long-term; duration: 95 days
[10] = system: Rattus norvegicus
[11] = system: Tagia sp.; conditions: acute; duration: 14 days; mortality

Question: With `CC(COc1ccc(Oc2ccccc2)cc1)Oc1ccccn1` (centres undefined) [Pyriproxyfen] as the molecule, how does the LD50 ([1]; acute, oral, unspecified, mortality) read?
Answer: > 1910 mg/kg

Question: And the NOEC ([1]; reproductive)?
Answer: 70.2 mg/kg-day

Question: What about the LD50 [2] of the same molecule?
Answer: > 74 µg/piece

Question: What about the LEL [3] of the same molecule?
Answer: 8000 g/ha

Question: And the NOEC [4]?
Answer: 0.01 mg/L

Question: And the NOAEL [5]?
Answer: 10 mg/kg-day

Question: And the LC50 ([6]; diet)?
Answer: > 863 mg/kg-day

Question: What about the LD50 [6] of the same molecule?
Answer: > 1910 mg/kg

Question: And the NOEC [7]?
Answer: 1.5e-05 mg/L

Question: And the LC50 [8]?
Answer: > 0.27 µg/mL

Question: What about the NOEC [9] of the same molecule?
Answer: 0.0043 mg/L

Question: And the LD50 ([10]; acute, oral, mortality)?
Answer: > 5000 mg/kg

Question: And the NOAEL ([10]; reproduction developmental, organ weight)?
Answer: 13.3 mg/kg-day

Question: What about the LC50 [11] of the same molecule?
Answer: > 1000 mg/kg
